From patent US8168644B2, “Quinazolinone derivatives as tubulin polymerization inhibitors” (Janssen Pharmaceutica NV, priority 2008, dated 2012) come the findings set out here.

For series [1], the system named is Human colon carcinoma HCT116 cells. The experiment in a line: Anti-proliferative effect, Alamar Blue assay, HCT116. It counts as cell-based. As to conditions: Homo sapiens, HCT-116, 96 h, 4-day incubation, read-out: HCT116 antiproliferative activity pIC50 (converted). Here is the method:
Human colon carcinoma HCT116 cells obtained from the ATCC were cultured in McCoy's 5A medium supplemented with 2 mM L-Glutamine, 50 μg/ml gentamicin and 10% heat inactivated fetal calf serum.
(§1) Resazurin was purchased from Aldrich (Prod. No. 199303). Potassium ferrocyanide, potassium ferricyanide, KH2PO4 and K2HPO4 were purchased from Sigma (Prod. Nos. P9387, P8131, P5655 and P8281, respectively).
(§2) Potassium Phosphate Buffer 0.1 M (PPB) was made as follows: 2.72 gram KH2PO4 and 13.86 gram K2HPO4 were dissolved in 500 ml milli-Q H2O, the pH was adjusted to pH 7.4 and the volume was brought to 1 liter with milli-Q H2O; the buffer was filter sterilised and stored at room temperature. Resazurin stock solution (PPB-A) was prepared fresh by dissolving 45 mg resazurin in 15 ml PBS. 30 mM potassium ferricyanide (PPB-B) was prepared by dissolving 0.987 gram potassium ferricyanide in 100 ml PPB. 30 mM potassium ferrocyanide (PPB-C) was prepared by dissolving 1.266 gram potassium ferrocyanide in 100 ml PPB.
(§3) Mixture of PPB-A, PPB-B and PPB-C was prepared by mixing equal volumes of the respective solutions. Resazurin work solution (herein termed “Alamar Blue” solution) was prepared by diluting said mixture 20× (vol/vol) in PPB and filter sterilising; the Alamar Blue solution could be kept at 4° C. for a maximum of 2 weeks.
(§4) For experiments in 384 wells plates the cells were seeded at a density of 4.5×10^3 cells/ml in Falcon 384-well culture plates (Life Technologies, Merelbeke, Belgium), black with clear bottom, in 45 μl culture medium. Cells were allowed to adhere to plastic for 24 hours. The tested compound was pre-diluted (1/50 in culture medium) and 5 μl pre-diluted compound was added to the wells. Following 4-day incubation, 10 μl of the Alamar Blue solution was added to each well and the cells were further incubated for 4 hours (HCT116) or 24 hours (PC-3) at 37° C. The fluorescence intensity was measured for each well on a Fluorescence plate reader (Fluoroskan, Labsystems, 540 nm excitation and 590 nm emission)
(§5) The antiproliferative activity was calculated as percentage of remaining viable cells in treated versus control (untreated cells) conditions. Within an experiment, the result for each experimental condition is the mean of 3 replicate wells. When appropriate, the experiments were repeated to establish full concentration-response curves. When appropriate, IC50-values (concentration of the drug, needed to reduce cell growth to 50% of the control) were computed using probit analysis for graded data (Finney, D. J., Probit Analyses, 2nd Ed. Chapter 10, Graded Responses, Cambridge University Press, Cambridge 1962). Herein the effects of test compounds are expressed as pIC50 (the negative log value of the IC50-value) (see Table 3).

Series [2] has as its system Human prostate cancer PC-3 cells. The experiment in a line: Anti-proliferative effect, Alamar Blue assay, PC-3. The format is cell-based. The following applies: Homo sapiens, 96 h, 4-day incubation, read-out: PC3 antiproliferative activity pIC50 (converted). Here is the method:
Human prostate cancer PC-3 cells obtained from the ATCC were cultured in HAM'S F12 medium supplemented with 1 mM Sodium Pyruvate, 1.5 g/L Sodium Bicarbonate, 50 μg/ml gentamicin, non-essential amino acids and 10% fetal calf serum.
as §1, §2, §3, §4, §5
In general terms: The colour change of resazurin is a common sign of viable cells or microbes.

The subject of another series is α-β-Tubulin. Description: α-β-Tubulin polymerization assay. The format is biochemical. The following applies: inhibition of polymerization at 20 μM and 5 μM, reported as score. Here is the method:
The tubulin polymerization assay is an adaptation of an assay originally described by Bonne, D. et al. (J. Biol. Chem., 1985, 260:2819-25). The assay kit was purchased from Cytoskeleton, Inc. (catalogue number BK011) and the assay was performed as described by the supplier with the following modifications. The assay was run in a 384-well black Proxiplate (Perkin Elmer) and volumes were adapted accordingly. The reactions were carried out in a final volume of 10 μl. Compounds were added to 25 μl of the reaction mix in 96-well PP plates (Corning) on ice and 10 μl of this mixture was dispensed into duplicates of the 384-well Proxiplates pre-warmed to 37° C. in a Fluoroskan Ascent plate reader (Thermo Scientific). Fluorescence measurements were taken every minute for one hour. The maximum slope of each well was determined (linear regression through 4 consecutive points) and polymerization was calculated as a percentage of polymerization observed in the absence of compound. Compounds were first measured at a concentration of 20 μM and then at 5 μM for those showing more than 50% inhibition at 20 μM as compared to the polymerization observed in the absence of compound. Results are reported in Table F-2 as scores defined as: a compound showing 0 to 50% inhibition at 20 μM is reported as score 1; a compound showing more than 50% inhibition at 5 μM is reported as score 3.

The test system of series [3] is human prostate cancer PC3 cells. The experiment in a line: Eb1 cellular assay (Eb1 Comet assay). It counts as cell-based. As to conditions: 1 hour treatment, LAC = concentration where Eb1 foci absent in at least 50% of treated cells. Here is the method: The Eb1 Comet assay relies on the detection of the Eb1 protein at the plus end of polymerizing microtubules (Mimori-Kiyosue, 2000) using indirect immunofluorescence. Disruption of microtubule dynamics through de-polymerization or stabilization results in a de-localization of Eb1 from the growing microtubule ends and this is visualized by the disappearance of Eb1 containing cytoplasmic foci.
Briefly, human prostate cancer PC3 cells obtained from the American Type Culture Collection were grown in 96-well plates (Greiner, cat. no. 655090) in HAM's F12 medium as recommended by the provider (ATCC). The cells were treated for 1 hour at 37° C. with compounds dissolved in DMSO (0.6% final DMSO concentration). The culture medium was then removed by aspiration and the cells were fixed by adding cold methanol (−20° C.). After a 15 minutes incubation at −20° C., the cells were washed twice with DPBS (Gibco) containing 0.5% Triton X-100. Mouse Eb1 antibody (BD Transduction Laboratories, cat. no. 610534) was added to the cells (1/250 dilution in DPBS containing 1% BSA) and incubated overnight at room temperature. The antibody was subsequently removed and the cells washed twice with DPBS, 0.5% Triton X-100. Secondary goat anti-mouse antibody conjugated to Alexa 488 fluorescent dye (Molecular Probes) was added at a 1/500 dilution in DPBS, 1% BSA and incubated for 1 hour at 37° C. The cells were washed twice with DPBS, 0.5% Triton X-100 and then DPBS containing 0.5% Triton X-100 and 1/5000 Hoechst 33342 (Molecular Probes) was added. Microscopy based Eb1 foci visualization was carried out using an IN Cell Analyser 1000 (Amersham Biosciences) using a 20× objective. Compound dependent microtubule disruption was visually determined by the disappearance in Eb1 foci. The lowest active concentration (LAC) was determined as the concentration where Eb1 foci were absent in at least 50% of the treated cells. Herein the effects of test compounds are expressed as pLAC (the negative log value of the LAC-value) (see Table 3).

For the compound `CCN1Cc2ccc([C@](C)(C#N)[C@@H]3CCc4c(Cl)ccnc43)cc2NC1=O` [Compound 13], the melting point was found to be 226 °C. Also, in series [1], the IC50 was 79.4 nM. The IC50 in series [2] was 100 nM.
Turning to `CCN1Cc2ccc([C@@](C)(C#N)Cc3cccc(C#N)c3)cc2NC1=O` [Compound 5], the melting point worked out at 152 °C. Moreover, the tubulin polymerization score in the series with α-β-Tubulin is 1 (a compound showing 0 to 50% inhibition at 20 μM is reported as score 1). Besides, the IC50 in series [1] is > 10000 nM. For the same compound, the IC50 in series [2] is > 10000 nM.
Take `CN1Cc2ccc(C(C)(C#N)Cc3ccccc3)cc2NC1=O` (stereo not shown) [Compound 7]: the melting point was determined as 210 °C. Also, the tubulin polymerization score in the series on α-β-Tubulin is 3 (a compound showing more than 50% inhibition at 5 μM is reported as score 3). Moreover, in series [3], the “Eb1 pLAC” value was 6.5. In series [1], the IC50 was 794 nM. Moreover, in series [2], the IC50 was 501 nM.
On the same counts, the results for `CCN1Cc2ccc(C(C)(C#N)Cc3cccc(I)c3)cc2NC1=O` (stereo not shown) [Compound 8] are 83 °C, 3 (a compound showing more than 50% inhibition at 5 μM is reported as score 3), 6.5, 200 nM and 501 nM.
On the same counts, the results for `C#Cc1cccc(CC(C)(C#N)c2ccc3c(c2)NC(=O)N(CC)C3)c1` (stereo not shown) [Compound 10] are 84.4 to 102.4 °C, 3 (a compound showing more than 50% inhibition at 5 μM is reported as score 3), 7, 158 nM and 316 nM.
Compound `CCN1Cc2ccc([C@](C)(C#N)Cc3ccccc3)cc2NC1=O` [Compound 4] registered a melting point of 124 °C. The tubulin polymerization score in the series with α-β-Tubulin is reported as 3 (a compound showing more than 50% inhibition at 5 μM is reported as score 3). The IC50 in series [1] is 200 nM. The IC50 in series [2] was 501 nM.
`CCN1Cc2ccc([C@](C)(C#N)Cc3cccc(C#N)c3)cc2NC1=O` [Compound 6] showed a melting point of 152 °C. Also, the tubulin polymerization score in the series on α-β-Tubulin was 3 (a compound showing more than 50% inhibition at 5 μM is reported as score 3). Also, the “Eb1 pLAC” value in series [3] stood at 7. The IC50 in series [1] is 50.1 nM. Besides, the IC50 in series [2] was 100 nM.
`CCN1Cc2ccc([C@](C)(C#N)Cc3nc(OC)cc(OC)n3)cc2NC1=O` (single isomer, unassigned) [Compound 1]: the melting point turned out to be 95 °C. Besides, the “Eb1 pLAC” value in series [3] was >7.5. For the same compound, in series [1], the IC50 is 39.8 nM. Further, in series [2], the IC50 was 79.4 nM.
For the compound `CCN1Cc2ccc([C@@](C)(C#N)Cc3ccccc3)cc2NC1=O` [Compound 3], the melting point worked out at 124 °C. The tubulin polymerization score in the series on α-β-Tubulin is reported as 1 (a compound showing 0 to 50% inhibition at 20 μM is reported as score 1). The IC50 in series [1] is > 10000 nM. In series [2], the IC50 is > 10000 nM.
Consider `CCN1Cc2ccc(C(C#N)(CC)Cc3cccc(C#N)c3)cc2NC1=O` (stereo not shown) [Compound 2], for which the tubulin polymerization score in the series on α-β-Tubulin is 3 (a compound showing more than 50% inhibition at 5 μM is reported as score 3). For the same compound, in series [3], the “Eb1 pLAC” value is recorded as 7. The IC50 in series [1] and in series [2] was 316 nM in each case.

What is called melting point is the temperature of the solid-liquid transition.
